Data reported in patent US5703079A, “Tetrahydrofuran antifungals” (Schering Corporation, priority 1995, dated 1997).

Key:
[1] = serum levels, half lives and tissue distribution following oral dosing; type: in vivo; settings: methyl cellulose formulation, mice, rats, dogs and monkeys
Aspergillus = experiment: in vitro antifungal broth dilution, Aspergillus (37 strains); type: cell-based, Aspergillus (flavus, fumigatus and other species); settings: for percentages of strains with MICs ≤1 mcg/ml / percentages of strains with MFCs ≤1 mcg/ml: Aspergillus, 37 strains; for percentages of strains with MICs ≤1 mcg/ml: Table Q; for percentages of strains with MFCs ≤1 mcg/ml: Table R
Procedure: (§1) The in vitro antifungal activity tests were performed via conventional broth dilution methods in Sabouraud dextrose broth ("SDB") medium and Eagles Minimum Essential Medium ("EMEM") against a large number of fungi. Minimum Inhibitory Concentrations ("MICs") were measured after 24, 48 and 72 hour tests. In many cases, Minimum Fungicidial Concentrations ("MFCS") were measured after 48 and 72 hours.

Candida albicans = experiment: in vitro antifungal broth dilution, Candida albicans (26 strains); type: cell-based; settings: for percentages of strains with MICs ≤1 mcg/ml: Table Q; for percentages of strains with MFCs ≤1 mcg/ml: Table R; for MIC 90: Table S, MIC for 90% of the strains
Procedure: as §1

Candida krusei = experiment: in vitro antifungal broth dilution, Candida krusei (16 strains); type: cell-based; settings: for percentages of strains with MICs ≤1 mcg/ml: Table Q; for percentages of strains with MFCs ≤1 mcg/ml: Table R
Procedure: as §1

[2] = tested on: Candida tropicalis & stellatoidea; experiment: in vitro antifungal broth dilution, Candida tropicalis & stellatoidea (5 strains); type: cell-based; settings: for percentages of strains with MICs ≤1 mcg/ml: Table Q; for percentages of strains with MFCs ≤1 mcg/ml: Table R; for MIC 90: Table S, MIC for 90% of the strains
Procedure: as §1

Candida glabrata = experiment: in vitro antifungal broth dilution, Candida glabrata (9 strains); type: cell-based; settings: for percentages of strains with MICs ≤1 mcg/ml: Table Q; for percentages of strains with MFCs ≤1 mcg/ml: Table R; for MIC 90: Table S, MIC for 90% of the strains
Procedure: as §1

Cryptococcus neoformans = experiment: in vitro antifungal broth dilution, Cryptococcus neoformans (3 strains); type: cell-based; settings: for percentages of strains with MICs ≤1 mcg/ml: Table Q; for percentages of strains with MFCs ≤1 mcg/ml: Table R; for MIC 90: Table S, MIC for 90% of the strains
Procedure: as §1

Dermatophytes = experiment: in vitro antifungal broth dilution, dermatophytes (6 strains); type: cell-based, T. rubrum, T. mentagrophytes, and T. tonsurans; settings: for percentages of strains with MICs ≤1 mcg/ml: Table Q; for percentages of strains with MFCs ≤1 mcg/ml: Table R
Procedure: as §1

## CCC(C(C)O)n1ncn(-c2ccc(N3CCN(c4ccc(OCC5COC(Cn6cncn6)(c6ccc(F)cc6F)C5)cc4)CC3)cc2)c1=O (centres unmarked) [drawing 24]
[1]
  serum levels compared to azoles of similar structure: consistently higher serum levels

## CCC(C(C)O)n1ncn(-c2ccc(N3CCN(c4ccc(OCC5COC(Cn6cncn6)(c6ccc(F)cc6F)C5)cc4)CC3)cc2)c1=O (centres unmarked) [drawing 25]
Aspergillus
  percentages of strains with MICs ≤1 mcg/ml: 100%
Aspergillus; listed as drawing 29
  percentages of strains with MFCs ≤1 mcg/ml: 50%
Candida albicans
  percentages of strains with MICs ≤1 mcg/ml: 100%
  percentages of strains with MFCs ≤1 mcg/ml: 100%
Candida krusei
  percentages of strains with MICs ≤1 mcg/ml: 100%
Candida krusei; listed as drawing 29
  percentages of strains with MFCs ≤1 mcg/ml: 88%
[2]
  percentages of strains with MICs ≤1 mcg/ml: 100%
  percentages of strains with MFCs ≤1 mcg/ml: 100%
  MIC 90: .117 MCG/ML
Candida glabrata
  percentages of strains with MICs ≤1 mcg/ml: 22%
  percentages of strains with MFCs ≤1 mcg/ml: 22%
Cryptococcus neoformans
  percentages of strains with MICs ≤1 mcg/ml: 100%
  percentages of strains with MFCs ≤1 mcg/ml: 100%
  MIC 90: .05 MCG/ML
Dermatophytes
  percentages of strains with MICs ≤1 mcg/ml: 100%
Dermatophytes; listed as drawing 29
  percentages of strains with MFCs ≤1 mcg/ml: 67%

## CCC(C(C)O)n1ncn(-c2ccc(N3CCN(c4ccc(OCC5COC(Cn6cncn6)(c6ccc(F)cc6F)C5)cc4)CC3)cc2)c1=O (centres unmarked) [drawing 26]
Aspergillus; listed as drawing 30
  percentages of strains with MFCs ≤1 mcg/ml: 62%
Candida albicans
  percentages of strains with MICs ≤1 mcg/ml: 100%
  percentages of strains with MFCs ≤1 mcg/ml: 100%
  MIC 90: .174 MCG/ML
Candida krusei; listed as drawing 30
  percentages of strains with MFCs ≤1 mcg/ml: 94%
[2]
  percentages of strains with MICs ≤1 mcg/ml: 100%
  percentages of strains with MFCs ≤1 mcg/ml: 100%
  MIC 90: .117 MCG/ML
Candida glabrata
  percentages of strains with MICs ≤1 mcg/ml: 22%
  percentages of strains with MFCs ≤1 mcg/ml: 22%
  MIC 90: 17.1 MCG/ML
Cryptococcus neoformans
  percentages of strains with MICs ≤1 mcg/ml: 100%
  percentages of strains with MFCs ≤1 mcg/ml: 100%
  MIC 90: .007 MCG/ML
Dermatophytes; listed as drawing 30
  percentages of strains with MFCs ≤1 mcg/ml: 83%

## CCC(C(C)O)n1ncn(-c2ccc(N3CCN(c4ccc(OCC5COC(Cn6cncn6)(c6ccc(F)cc6F)C5)cc4)CC3)cc2)c1=O (centres unmarked) [drawing 27]
Aspergillus; listed as drawing 31
  percentages of strains with MFCs ≤1 mcg/ml: 89%
Candida albicans
  percentages of strains with MICs ≤1 mcg/ml: 100%
  percentages of strains with MFCs ≤1 mcg/ml: 100%
  MIC 90: .139 MCG/ML
Candida krusei; listed as drawing 31
  percentages of strains with MFCs ≤1 mcg/ml: 100%
[2]
  percentages of strains with MICs ≤1 mcg/ml: 100%
  percentages of strains with MFCs ≤1 mcg/ml: 100%
  MIC 90: .354 MCG/ML
Candida glabrata
  percentages of strains with MICs ≤1 mcg/ml: 33%
  percentages of strains with MFCs ≤1 mcg/ml: 22%
  MIC 90: 28.8 MCG/ML
Cryptococcus neoformans
  percentages of strains with MICs ≤1 mcg/ml: 100%
  percentages of strains with MFCs ≤1 mcg/ml: 100%
  MIC 90: .101 MCG/ML
Dermatophytes; listed as drawing 31
  percentages of strains with MFCs ≤1 mcg/ml: 100%

## OC(Cn1cncn1)(Cn1cncn1)c1ccc(F)cc1F [fluconazole, reference compound]
Aspergillus
  percentages of strains with MICs ≤1 mcg/ml: 0%
  percentages of strains with MFCs ≤1 mcg/ml: 0%
Aspergillus; SDB, 37 species of Aspergillus, compared to fluconazole, read-out: geometric mean MFC
  MFC: ≥ 32 µg/mL
Candida albicans
  percentages of strains with MICs ≤1 mcg/ml: 100%
  percentages of strains with MFCs ≤1 mcg/ml: 100%
Candida krusei
  percentages of strains with MICs ≤1 mcg/ml: 0%
  percentages of strains with MFCs ≤1 mcg/ml: 0%
[2]
  percentages of strains with MICs ≤1 mcg/ml: 100%
  percentages of strains with MFCs ≤1 mcg/ml: 100%
Candida glabrata
  percentages of strains with MICs ≤1 mcg/ml: 0%
  percentages of strains with MFCs ≤1 mcg/ml: 0%
Cryptococcus neoformans
  percentages of strains with MICs ≤1 mcg/ml: 0%
  percentages of strains with MFCs ≤1 mcg/ml: 0%
Dermatophytes
  percentages of strains with MICs ≤1 mcg/ml: 100%
  percentages of strains with MFCs ≤1 mcg/ml: 0%
